Drawing on the PolyMetriX glass transition set, this text covers glass transition temperature for 61 compounds.

`*/C=C(/*)C(CCC)[Si](C)(C)c1ccccc1` (repeat unit) yielded a glass transition temperature of 110.00 °C.

As for `*=CNc1ccc(Cc2ccc(N=*)cc2)cc1` (repeat unit), the glass transition temperature came to 95.50 °C.

In the case of `*CC1CCC(COP(=O)(/N=N/c2ccc(Oc3ccc(/N=N/P(=O)(O*)OC)cc3)cc2)OC)CC1` (repeat unit), the glass transition temperature is 50.00 °C.

Consider `*CCCCCCCCCCOC(=O)Nc1ccc(C)c(NC(=O)O*)c1` (repeat unit), for which the glass transition temperature is 18.00 °C.

As for `*CCCCCCCCCOC(=O)Nc1ccc(C)c(NC(=O)O*)c1` (repeat unit), the glass transition temperature came to 62.00 °C.

Regarding `*CCCCCCCOC(=O)Nc1ccc(C)c(NC(=O)O*)c1` (repeat unit), the glass transition temperature worked out at 61.00 °C.

For the compound `*CCCCCCOC(=O)Nc1ccc(C)c(NC(=O)OCCCCCCOc2ccc(-c3ccc(O*)cc3)cc2)c1` (repeat unit), the glass transition temperature was found to be 87.00 °C.

On to `*CCCCCCOP(=O)(/N=N/c1ccc(CCOC(=O)c2cc(C(=O)OCCc3ccc(/N=N/P(=O)(O*)OC)cc3)cc(C(C)(C)C)c2)cc1)OC` (repeat unit), for which the glass transition temperature amounted to 47.00 °C.

For the compound `*CCCCCCOP(=O)(/N=N/c1ccc(COC(=O)c2cc(C(=O)OCc3ccc(/N=N/P(=O)(O*)OC)cc3)cc(C(C)(C)C)c2)cc1)OC` (repeat unit), the glass transition temperature came to 62.00 °C.

`*CCCCCOC(=O)Nc1ccc(C)c(NC(=O)O*)c1` (repeat unit) displayed a glass transition temperature of 52.00 °C.

`*CCCCCOC(=O)c1ccccc1C(=O)[O][Cd][O]C(=O)c1ccccc1C(=O)OCCCCCOC(=O)Nc1ccc(C)c(NC(=O)O*)c1` (repeat unit) displayed a glass transition temperature of 2.30 °C.

Compound `*CCCCOC(=O)Nc1ccc(C)c(NC(=O)OCCCCn2c3ccccc3c3cc(/C=C(\C#N)C(=O)OCCCCCCOC(=O)/C(C#N)=C/c4ccc5c(c4)c4ccccc4n5*)ccc32)c1` (repeat unit) displayed a glass transition temperature of 117.00 °C.

`*CCCNC(=O)C(NC(=O)C(Cc1ccccc1)NC(=O)CCCCCCCCC(=O)NC(Cc1ccccc1)C(=O)NC(C(=O)NCCCOCCOCCO*)C(C)C)C(C)C` (repeat unit) came in with a glass transition temperature of 66.00 °C.

Compound `*CCCNC(=O)CNC(=O)C(NC(=O)C(Cc1ccccc1)NC(=O)CCCCCCCCC(=O)NC(Cc1ccccc1)C(=O)NC(C(=O)NCC(=O)NCCCOCCOCCO*)C(C)C)C(C)C` (repeat unit) had a glass transition temperature of 58.00 °C.

`*CCCOC(=O)Nc1cc(NC(=O)O*)ccc1C` (repeat unit): the glass transition temperature was 6.00 °C.

For the compound `*CCN(CCOC(=O)NCC1(C)CC(NC(=O)O*)CC(C)(C)C1)c1ccc(/N=N/c2ccc(C#N)cc2)cc1` (repeat unit), the glass transition temperature stood at 136.00 °C.

On to `*CCN(CCOC(=O)Nc1ccc(C)c(NC(=O)O*)c1)c1ccc(-c2nc3ccc([N+](=O)[O-])cc3o2)cc1` (repeat unit), for which the glass transition temperature was found to be 156.00 °C.

Regarding `*CCN(CCOC(=O)Nc1ccc(C)c(NC(=O)O*)c1)c1ccc(/N=N/c2ccc([N+](=O)[O-])cc2)cc1` (repeat unit), the glass transition temperature came to 144.00 °C.

In turn, `*CCN(CCOC(=O)Nc1ccc(C)c(NC(=O)O*)c1)c1ccc(C(C#N)=C(C#N)C#N)cc1` (repeat unit) registered a glass transition temperature of 125.00 °C.

In turn, `*CCN(CCOC(=O)Nc1ccc(C)c(NC(=O)O*)c1)c1ccccc1` (repeat unit) registered a glass transition temperature of 31.90 °C.

In turn, `*CCN(CCOC(=O)Nc1cccc(NC(=O)O*)c1C)c1ccc(/C=C/c2ccc([N+](=O)[O-])cc2)cc1` (repeat unit) returned a glass transition temperature of 123.00 °C.

`*CCN(CCOC(=O)c1ccc(C(=O)O*)c(OCCC)c1)c1ccc(/N=N/c2ccc(-c3nc4ccccc4o3)cc2)cc1` (repeat unit) displayed a glass transition temperature of 117.00 °C.

The compound `*CCN(CCOC(=O)c1ccc(C(=O)O*)c(OCCC)c1)c1ccc(/N=N/c2nc(C#N)c(C#N)[nH]2)cc1` (repeat unit) came in with a glass transition temperature of 152.00 °C.

In turn, `*CCOC(=O)NCC1(C)CC(NC(=O)O*)CC(C)(C)C1` (repeat unit) displayed a glass transition temperature of 84.00 °C.

`*CCOC(=O)Nc1ccc(C)c(NC(=O)OCCOc2cc([N+](=O)[O-])ccc2/N=N/c2cn(*)c3ccc(-c4ccc5c(c4)c4ccccc4n5CCCC)cc23)c1` (repeat unit): the glass transition temperature amounted to 160.00 °C.

In the case of `*CCOC(=O)Nc1ccc(C)c(NC(=O)OCCOc2cc([N+](=O)[O-])ccc2/N=N/c2cn(*)c3ccccc23)c1` (repeat unit), the glass transition temperature is 150.00 °C.

Consider `*CCOC(=O)Nc1ccc(C)c(NC(=O)OCCOc2ccc(C3(c4ccc(O*)cc4)c4ccccc4-c4ccccc43)cc2)c1` (repeat unit), for which the glass transition temperature was 175.00 °C.

Compound `*CCOCCOC(=O)C(CCCCCCCCC)C(=O)O*` (repeat unit) had a glass transition temperature of -59.00 °C.

For `*CCOP(=O)(/N=N/c1ccc(COC(=O)c2cc(C(=O)OCc3ccc(/N=N/P(=O)(O*)OC)cc3)cc(C(C)(C)C)c2)cc1)OC` (repeat unit), the glass transition temperature was found to be 105.00 °C.

`*CCOP(=O)(/N=N/c1ccc(Oc2ccc(/N=N/P(=O)(O*)OCC)cc2)cc1)OCC` (repeat unit) came in with a glass transition temperature of 22.00 °C.

On to `*Cc1ccc(COP(=O)(/N=N/c2ccc(-c3ccc(/N=N/P(=O)(O*)OC)cc3)cc2)OC)cc1` (repeat unit), for which the glass transition temperature was found to be 48.00 °C.

`*Cc1ccc(COP(=O)(/N=N/c2ccc(C(=O)c3ccc(/N=N/P(=O)(O*)OC)cc3)cc2)OC)cc1` (repeat unit): the glass transition temperature came out at 48.00 °C.

Compound `*Cc1ccc(COP(=O)(/N=N/c2ccc(Oc3ccc(/N=N/P(=O)(O*)OC)cc3)cc2)OC)cc1` (repeat unit) returned a glass transition temperature of 50.00 °C.

For `*Cc1ccccc1CN(CC)c1ccc(/C=C(\C#N)C(=O)Nc2cccc(NC(=O)/C(C#N)=C/c3ccc(N(*)CC)cc3)c2)cc1` (repeat unit), the glass transition temperature was 188.00 °C.

Consider `*Cc1ccccc1C[Si](*)(C)C` (repeat unit), for which the glass transition temperature is 75.00 °C.

In the case of `*N(CCC)[Si](C)(C)C[Si](*)(C)C` (repeat unit), the glass transition temperature is -20.00 °C.

Consider `*N1CCOC1(*)CC` (repeat unit), for which the glass transition temperature came out at 55.00 °C.

Compound `*N=P(*)(C)c1ccccc1` (repeat unit) displayed a glass transition temperature of 37.00 °C.

The compound `*N=P(*)(CC)c1ccccc1` (repeat unit) had a glass transition temperature of 20.00 °C.

In turn, `*N=P(*)(OCCOCCOCCOP1(OCCOCCOC)=NP(OCCOCCOC)(OCCOCCOC)=NP(OCCOCCOC)(OCCOCCOC)=N1)OCCOCCOCCOP1(OCCOCCOC)=NP(OCCOCCOC)(OCCOCCOC)=NP(OCCOCCOC)(OCCOCCOC)=N1` (repeat unit) came in with a glass transition temperature of -38.00 °C.

In turn, `*Nc1cc(NC(=O)Nc2ccc(CCc3ccccc3NC(*)=O)cc2)ccc1C` (repeat unit) returned a glass transition temperature of 227.00 °C.

`*Nc1cc([N+](=O)[O-])c(NC(=O)CCCCC(*)=O)cc1/C=C/c1ccc(N(C)C)cc1` (repeat unit) had a glass transition temperature of 206.00 °C.

Compound `*Nc1cc([N+](=O)[O-])c(NC(=O)CCCCCCC(*)=O)cc1/C=C/c1ccc(N(C)C)cc1` (repeat unit) returned a glass transition temperature of 180.00 °C.

In turn, `*OC(=O)C(C)NC(=O)CCCCCCCCC(=O)NC(C)C(=O)OC1COC2C(*)COC12` (repeat unit) displayed a glass transition temperature of 57.00 °C.

As for `*OC(=O)C(CCSC)NC(=O)CCCCCCCCC(=O)NC(CCSC)C(=O)OC1COC2C(*)COC12` (repeat unit), the glass transition temperature amounted to 61.00 °C.

On to `*OC(=O)C(NC(=O)CCCCC(=O)NC(C(=O)OC1COC2C(*)COC12)C(C)CC)C(C)CC` (repeat unit), for which the glass transition temperature was 102.00 °C.

Compound `*OC(=O)C(NC(=O)CCCCCCCCC(=O)NC(C(=O)OC1COC2C(*)COC12)C(C)CC)C(C)CC` (repeat unit) came in with a glass transition temperature of 91.00 °C.

As to `*OC(=O)Nc1ccc(C)c(NC(=O)OC2CCN(c3ccc(/C=C/C4=CC(=C(C#N)C#N)C=C(/C=C/c5ccc(N6CCC(*)CC6)s5)O4)s3)CC2)c1` (repeat unit), the glass transition temperature was 212.00 °C.

In turn, `*OC(C)C(=O)NC(C)C(*)=O` (repeat unit) showed a glass transition temperature of 57.7 °C.

Take `*Oc1ccc(-c2ccc(OC(=O)c3cc(CCCCC)cc(C(*)=O)c3)cc2)cc1` (repeat unit): the glass transition temperature was 138.00 °C.

The compound `*Oc1ccc(CC(*)=O)cc1` (repeat unit) gave a glass transition temperature of 117.00 °C.

Regarding `*Oc1ccc(CC(NC(=O)CCc2ccc(OC(*)=O)cc2)C(=O)OCC)cc1` (repeat unit), the glass transition temperature amounted to 96.00 °C.

`*Oc1ccc(CC(NC(=O)CCc2ccc(OC(*)=O)cc2)C(=O)OCCCC)cc1` (repeat unit) yielded a glass transition temperature of 67.00 °C.

`*Oc1ccc(CC(NC(=O)CCc2ccc(OC(*)=O)cc2)C(=O)OCCCCCC)cc1` (repeat unit) gave a glass transition temperature of 51.50 °C.

In the case of `*Oc1ccc(CC(NC(=O)CCc2ccc(OC(=O)COCCOCC(*)=O)cc2)C(=O)OC(C)CC)cc1` (repeat unit), the glass transition temperature stood at 44.00 °C.

With `*Oc1ccc(CC(NC(=O)CCc2ccc(OC(=O)COCCOCC(*)=O)cc2)C(=O)OC)cc1` (repeat unit), the glass transition temperature was 63.00 °C.

On to `*Oc1ccc(CC(NC(=O)CCc2ccc(OC(=O)COCCOCC(*)=O)cc2)C(=O)OCC(C)C)cc1` (repeat unit), for which the glass transition temperature worked out at 50.00 °C.

As for `*Oc1ccc(CC(NC(=O)CCc2ccc(OC(=O)COCCOCC(*)=O)cc2)C(=O)OCC)cc1` (repeat unit), the glass transition temperature was 53.00 °C.

For the compound `*Oc1ccc(CC(NC(=O)CCc2ccc(OC(=O)COCCOCC(*)=O)cc2)C(=O)OCCCCCC)cc1` (repeat unit), the glass transition temperature was found to be 28.00 °C.

In turn, `*Oc1ccc(CC(NC(=O)CCc2ccc(OC(=O)COCCOCC(*)=O)cc2)C(=O)OCCCCCCCCCCCC)cc1` (repeat unit) registered a glass transition temperature of 17.00 °C.

`*Oc1ccc(OC(=O)c2cc(OCCCCCCCCCCCC)c(C(*)=O)cc2OCCCCCCCCCCCC)cc1-c1ccccc1` (repeat unit) registered a glass transition temperature of 96.00 °C.
